Assay results from the supplement of paper PMC13380429.

Legend:
Conditions in all cases: 72 h
[1] = test system: Caco-2; experiment: cell viability relative to DMSO; higher = less toxic
[2] = test system: Calu-3; experiment: as above
[3] = test system: HepG2; experiment: as above
[4] = test system: U2OS; experiment: as above
[5] = test system: Vero E6; experiment: as above
[6] = test system: Caco-2; experiment: relative viability EC50 (midpoint between 100% and the lowest measured viability); higher = less toxic
[7] = test system: Calu-3; experiment: as above
[8] = test system: HepG2; experiment: as above
[9] = test system: U2OS; experiment: as above
[10] = test system: Vero E6; experiment: as above
[11] = test system: Caco-2; experiment: drug sensitivity score (DSS) for viability; higher = more toxic; extreme values may be limits of the assay
[12] = test system: Calu-3; experiment: as above
[13] = test system: HepG2; experiment: as above
[14] = test system: U2OS; experiment: as above
[15] = test system: Vero E6; experiment: as above

Row | Structure (SMILES) | cell viability ([1]; 1 nM) | cell viability ([1]; 10 nM) | cell viability ([1]; 100 nM) | cell viability ([1]; 1000 nM) | cell viability ([1]; 10000 nM) | cell viability ([2]; 1 nM) | cell viability ([2]; 10 nM) | cell viability ([2]; 100 nM) | cell viability ([2]; 1000 nM) | cell viability ([2]; 10000 nM) | cell viability ([3]; 1 nM) | cell viability ([3]; 10 nM) | cell viability ([3]; 100 nM) | cell viability ([3]; 1000 nM) | cell viability ([3]; 10000 nM) | cell viability ([4]; 1 nM) | cell viability ([4]; 10 nM) | cell viability ([4]; 100 nM) | cell viability ([4]; 1000 nM) | cell viability ([4]; 10000 nM) | cell viability ([5]; 1 nM) | cell viability ([5]; 10 nM) | cell viability ([5]; 100 nM) | cell viability ([5]; 1000 nM) | cell viability ([5]; 10000 nM) | relative viability EC50 [6] | relative viability EC50 [7] | relative viability EC50 [8] | relative viability EC50 [9] | relative viability EC50 [10] | drug sensitivity score [11] | drug sensitivity score [12] | drug sensitivity score [13] | drug sensitivity score [14] | drug sensitivity score [15]
1 | Ic1cncc(OC[C@@H]2CCN2)c1 | 102% | 97.2% | 94% | 100% | 108% | 98.4% | 98.4% | 102% | 97% | 102% | 94% | 94% | 99.4% | 98% | 105% | 92.1% | 102% | 96.7% | 99.5% | 106% | 97.4% | 92.7% | 96.6% | 95.3% | 102% | > 10 µM | > 10 µM | > 10 µM | > 10 µM | > 10 µM | 0 | 0 | 0 | 0 | 0
2 | NC(=O)c1ccc(-c2nc(-c3ccccn3)c(-c3ccc4c(c3)OCO4)[nH]2)cc1 | 89.3% | 106% | 92.5% | 106% | 101% | 92.2% | 95% | 91.9% | 110% | 103% | 107% | 93.6% | 103% | 96% | 83.9% | 91.2% | 96.6% | 96% | 97.1% | 92.4% | 98.3% | 92.4% | 96.1% | 97.8% | 105% | > 10 µM | > 10 µM | > 10 µM | > 10 µM | > 10 µM | 0 | 0 | 0.7 | 0 | 0
3 | O=C(c1c(O)nc2cc(Cl)ccc2c1O)C1CC1 | 94.7% | 91.3% | 90.1% | 93.5% | 98.4% | 96.5% | 88.1% | 106% | 97.1% | 96.5% | 97.7% | 112% | 89.6% | 102% | 104% | 99.9% | 98.6% | 102% | 96% | 98.1% | 90.4% | 98.6% | 90.1% | 95.9% | 109% | > 10 µM | > 10 µM | > 10 µM | > 10 µM | > 10 µM | 0 | 0 | 0 | 0 | 0
4 | O=c1[nH]c(CCl)nc2sc3c(c12)CCCC3 | 96.8% | 99.1% | 98.3% | 98.8% | 71% | 116% | 98.1% | 97.9% | 92% | 109% | 92.7% | 94.5% | 96.2% | 107% | 81.8% | 103% | 94.5% | 98.8% | 100% | 80.6% | 99.4% | 101% | 95.8% | 96.4% | 92.9% | – | > 10 µM | > 10 µM | > 10 µM | > 10 µM | 1.4 | 0 | 0.2 | 0.5 | 0
5 | OCCC#Cc1nc(-c2ccc(F)cc2)c(-c2ccncc2)n1CCCc1ccccc1 | 98.4% | 106% | 91.6% | 91.6% | 78.6% | 101% | 100% | 83.6% | 90.2% | 79.7% | 90.4% | 99.5% | 105% | 99.6% | 93.9% | 95.9% | 92% | 94.7% | 90.1% | 79.7% | 92.5% | 99.7% | 87% | 85% | 100% | > 10 µM | > 10 µM | > 10 µM | > 10 µM | > 10 µM | 1.2 | 2.2 | 0 | 1.1 | 0
6 | c1ccc(-c2n[nH]cc2-c2ccnc3ccccc23)nc1 | 96.4% | 93.1% | 92.7% | 103% | 97.3% | 95.5% | 105% | 110% | 105% | 105% | 110% | 96.4% | 107% | 102% | 116% | 94.1% | 97.9% | 95.9% | 98.9% | 91.4% | 94.1% | 99.4% | 99.4% | 89.3% | 104% | > 10 µM | > 10 µM | > 10 µM | > 10 µM | > 10 µM | 0 | 0 | 0 | 0 | 0
